Measurements published in PubChem BioAssay (NCI).
Where “and” joins values, the source holds several entries; their conditions need not be identical. Equal values may be shown once.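 How tested: cells in 96-well plates exposed to compound for 48 hours at five concentrations. GI50 = concentration required for 50% inhibition of growth. TGI: total growth inhibition.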

Experiments:
Assay in all cases: NCI-60 cell line screen, 48 h
NCI-H226 lung = test system: NCI-H226 lung
MCF7 breast = test system: MCF7 breast
UACC-257 melanoma = test system: UACC-257 melanoma
ACHN renal = test system: ACHN renal
MDA-N = test system: MDA-N
SK-OV-3 ovarian = test system: SK-OV-3 ovarian
SF-295 CNS = test system: SF-295 CNS
SK-MEL-5 melanoma = test system: SK-MEL-5 melanoma
OVCAR-3 ovarian = test system: OVCAR-3 ovarian
PC-3 prostate = test system: PC-3 prostate
COLO 205 colon = test system: COLO 205 colon
NCI/ADR-RES ovarian = test system: NCI/ADR-RES ovarian
UACC-62 melanoma = test system: UACC-62 melanoma
SK-MEL-28 melanoma = test system: SK-MEL-28 melanoma
OVCAR-5 ovarian = test system: OVCAR-5 ovarian
UO-31 renal = test system: UO-31 renal
NCI-H460 lung = test system: NCI-H460 lung
786-0 renal = test system: 786-0 renal
MOLT-4 leukemia = test system: MOLT-4 leukemia
DU-145 prostate = test system: DU-145 prostate
RPMI-8226 leukemia = test system: RPMI-8226 leukemia
K-562 leukemia = test system: K-562 leukemia
M14 melanoma = test system: M14 melanoma
TK-10 renal = test system: TK-10 renal
SNB-75 CNS = test system: SNB-75 CNS
A549 NSCLC = test system: A549 NSCLC
IGROV1 ovarian = test system: IGROV1 ovarian
HCT-15 colon = test system: HCT-15 colon
MALME-3M melanoma = test system: MALME-3M melanoma
SK-MEL-2 melanoma = test system: SK-MEL-2 melanoma
HCT-116 colon = test system: HCT-116 colon
SF-539 CNS = test system: SF-539 CNS
SF-268 CNS = test system: SF-268 CNS
HT29 colon = test system: HT29 colon
HCC-2998 colon = test system: HCC-2998 colon
SN12C renal = test system: SN12C renal
NCI-H522 lung = test system: NCI-H522 lung
NCI-H23 lung = test system: NCI-H23 lung
HOP-62 NSCLC = test system: HOP-62 NSCLC
T-47D breast = test system: T-47D breast
SR leukemia = test system: SR leukemia
SNB-19 CNS = test system: SNB-19 CNS
OVCAR-8 ovarian = test system: OVCAR-8 ovarian
HS 578T breast = test system: HS 578T breast
LOX IMVI melanoma = test system: LOX IMVI melanoma
U251 CNS = test system: U251 CNS
CAKI-1 renal = test system: CAKI-1 renal
A498 renal = test system: A498 renal
KM12 colon = test system: KM12 colon
EKVX NSCLC = test system: EKVX NSCLC
MDA-MB-231 breast = test system: MDA-MB-231 breast
OVCAR-4 ovarian = test system: OVCAR-4 ovarian
HOP-92 NSCLC = test system: HOP-92 NSCLC
RXF 393 renal = test system: RXF 393 renal
MDA-MB-435 = test system: MDA-MB-435

CN(C)c1ccc(/C=C/c2sc3ccccc3[n+]2C)cc1
TGI (NCI-H226 lung): 15.4 µM and 7.31 µM
GI50 (MCF7 breast): 3.94 µM and 1.46 µM
TGI (MCF7 breast): 17.6 µM and 7.41 µM
TGI (UACC-257 melanoma): 7.85 µM and 11.9 µM
TGI (ACHN renal): 9.85 µM and 7.49 µM
TGI (MDA-N): 7.36 µM
TGI (SK-OV-3 ovarian): 17.1 µM
TGI (SF-295 CNS): 24.8 µM and 23.1 µM
TGI (SK-MEL-5 melanoma): 3.93 µM and 3.27 µM
TGI (OVCAR-3 ovarian): 3.82 µM and 2.86 µM
TGI (PC-3 prostate): 10.9 µM and 22.8 µM
GI50 (COLO 205 colon): 0.185 µM
TGI (COLO 205 colon): 0.377 µM
TGI (NCI/ADR-RES ovarian): > 100 µM
GI50 (UACC-62 melanoma): 3.87 µM and 1.48 µM
TGI (UACC-62 melanoma): 17 µM and 5.87 µM
TGI (SK-MEL-28 melanoma): 15.7 µM and 6.34 µM
TGI (OVCAR-5 ovarian): 26.6 µM and 61.5 µM
GI50 (UO-31 renal): 2.91 µM
GI50 (NCI-H460 lung): 1.88 µM and 0.744 µM
TGI (NCI-H460 lung): 5.28 µM and 7.85 µM
TGI (786-0 renal): 14.9 µM and > 100 µM
TGI (MOLT-4 leukemia): 0.957 µM and 1.31 µM
GI50 (DU-145 prostate): 2.57 µM and 0.532 µM
TGI (DU-145 prostate): 13.2 µM and 11.2 µM
GI50 (RPMI-8226 leukemia): 0.355 µM
TGI (RPMI-8226 leukemia): 0.719 µM and 4.19 µM
GI50 (K-562 leukemia): 0.515 µM and 0.856 µM
TGI (K-562 leukemia): 4.26 µM and 26.2 µM
GI50 (M14 melanoma): 3.66 µM and 0.427 µM
TGI (M14 melanoma): 16.2 µM and 3.29 µM
TGI (TK-10 renal): 16 µM and 24.9 µM
GI50 (SNB-75 CNS): 0.35 µM and 2.3 µM
TGI (A549 NSCLC): 16.7 µM and 17.2 µM
GI50 (IGROV1 ovarian): 4.29 µM and 1.21 µM
TGI (IGROV1 ovarian): 19.7 µM and 15.3 µM
TGI (HCT-15 colon): 29.3 µM and 24.2 µM
TGI (MALME-3M melanoma): 12.1 µM and 6 µM
TGI (SK-MEL-2 melanoma): 8.88 µM and 5.81 µM
TGI (HCT-116 colon): 10.9 µM and > 100 µM
TGI (SF-539 CNS): 9.91 µM and 17.8 µM
TGI (SF-268 CNS): 17.5 µM and 23 µM
GI50 (HT29 colon): 2.71 µM and 1.14 µM
TGI (HT29 colon): 11.8 µM and 12 µM
GI50 (HCC-2998 colon): 11.2 µM and 1.48 µM
TGI (HCC-2998 colon): 25.7 µM and 17.3 µM
GI50 (SN12C renal): 1.71 µM and 0.645 µM
TGI (SN12C renal): 7.6 µM and 15.7 µM
TGI (NCI-H522 lung): 11.1 µM and 7.29 µM
TGI (NCI-H23 lung): 8.47 µM and 16.7 µM
GI50 (HOP-62 NSCLC): 3.7 µM and 8.53 µM
TGI (HOP-62 NSCLC): 14.9 µM and > 100 µM
TGI (T-47D breast): 11.1 µM and 30.5 µM
GI50 (SR leukemia): 2.07 µM and 0.268 µM
TGI (SR leukemia): 8.87 µM and 2.6 µM
TGI (SNB-19 CNS): 14 µM and > 100 µM
GI50 (OVCAR-8 ovarian): 0.0955 µM and 0.387 µM
TGI (OVCAR-8 ovarian): 1.17 µM and 6.8 µM
TGI (HS 578T breast): 36.8 µM and 46.1 µM
GI50 (LOX IMVI melanoma): 2.34 µM and 1.11 µM
TGI (LOX IMVI melanoma): 6.87 µM and 3.34 µM
GI50 (U251 CNS): 0.479 µM and 0.121 µM
TGI (U251 CNS): 13.8 µM and > 100 µM
TGI (CAKI-1 renal): 13.2 µM and 11.6 µM
TGI (A498 renal): 26.2 µM and 32.7 µM
GI50 (KM12 colon): 0.621 µM
TGI (KM12 colon): > 25.2 µM and 5.26 µM
GI50 (EKVX NSCLC): 9.19 µM and 2.31 µM
TGI (EKVX NSCLC): 31.9 µM and 19.8 µM
GI50 (MDA-MB-231 breast): 2 µM and 7.25 µM
TGI (MDA-MB-231 breast): 10.1 µM and 33.8 µM
TGI (OVCAR-4 ovarian): 10.2 µM and 9.3 µM
TGI (HOP-92 NSCLC): 5.34 µM and 8.69 µM
GI50 (RXF 393 renal): 11 µM and 5.02 µM
TGI (RXF 393 renal): 27.8 µM and 36.3 µM
TGI (MDA-MB-435): 5.64 µM and 3.94 µM
